US6914045B2, “Glycopeptide antibiotics” (Wyeth Holdings Corporation, priority 2001, dated 2005)
Values after ≈ are worked out from the molar mass of the structure shown.

Experiments:
Assay in all cases: in vitro antibacterial evaluation, MIC by broth dilution
Type in all cases: cell-based
Escherichia coli = details: 18 hours at 35° C.
Streptococcus sp. = details: broth dilution, 18 hours at 35° C.
Summary of the method: (§1)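 Following National Committee for Clinical Laboratory Standards recommendations (M7-A2), susceptibility was measured by dilution in Muller-Hinton II […]. Bacteria were seeded at 5×10^5 CFU/mL against compound concentrations from 64 down to 0.06 μg/mL.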

Enterococcus sp. = details: broth dilution, 18 hours at 35° C.
Summary of the method: as §1

Staphylococcus sp. = details: broth dilution, 18 hours at 35° C.
Summary of the method: as §1

CC(c1ccccc1)C1NC(=O)CNC(=O)C(CO)NC(=O)C(C(O)C2CNC(=N)N2C2OC(CO)C(O)C(O)C2O)NC(=O)C(C(O)C2CNC(=N)N2)NC(=O)C(Cc2ccc(OC3OC(CO)C(OC4OC(COCC=C(c5ccccc5)c5ccccc5)C(O)C(O)C4O)C(O)C3O)cc2)NC1=O (stereo not shown) [Example 241]
MIC Escherichia coli (ATCC 25922) (Escherichia coli): >64 µg/mL
MIC Escherichia coli (GC 4559) (Escherichia coli): >64 µg/mL
MIC Escherichia coli (GC 4560) (Escherichia coli): 2 µg/mL (≈ 1.34 µM)
MIC Streptococcus agalactiae (GC 4564) (Streptococcus sp.): <0.06 µg/mL
MIC Streptococcus pneumoniae (ATCC 6301) (Streptococcus sp.): <0.06 µg/mL
MIC Streptococcus pneumoniae (GC 1894) (Streptococcus sp.): <0.06 µg/mL
MIC Streptococcus pneumoniae (GC 4565) (Streptococcus sp.): <0.06 µg/mL
MIC Streptococcus pyogenes (GC 4563) (Streptococcus sp.): <0.06 µg/mL
MIC Streptococcus pneumoniae (ATCC 6301) (Streptococcus sp.; inoculum 5×10^5 CFU/mL, strain ATCC 6301): <0.06 µg/mL
MIC Streptococcus pneumoniae (GC 1894) (Streptococcus sp.; inoculum 5×10^5 CFU/mL, strain GC 1894): <0.06 µg/mL
MIC Streptococcus pyogenes (GC 4563) (Streptococcus sp.; inoculum 5×10^5 CFU/mL, strain GC 4563): <0.06 µg/mL
MIC Streptococcus agalactiae (GC 4564) (Streptococcus sp.; inoculum 5×10^5 CFU/mL, strain GC 4564): <0.06 µg/mL
MIC Streptococcus pneumoniae (GC 4565) (Streptococcus sp.; inoculum 5×10^5 CFU/mL, strain GC 4565): <0.06 µg/mL
MIC Enterococcus avium (GC 4558) (Enterococcus sp.): 4 µg/mL (≈ 2.69 µM)
MIC Enterococcus faecalis (ATCC 29212) (Enterococcus sp.): 4 µg/mL (≈ 2.69 µM)
MIC Enterococcus faecalis (GC 2242) (Enterococcus sp.): 4 µg/mL (≈ 2.69 µM)
MIC Enterococcus faecalis (GC 2691) (Enterococcus sp.): 4 µg/mL (≈ 2.69 µM)
MIC Enterococcus faecalis (GC 3059) (Enterococcus sp.): 2 µg/mL (≈ 1.34 µM)
MIC Enterococcus faecalis (GC 4552) (Enterococcus sp.): 4 µg/mL (≈ 2.69 µM)
MIC Enterococcus faecalis (GC 4553) (Enterococcus sp.): 4 µg/mL (≈ 2.69 µM)
MIC Enterococcus faecalis (GC 4554) (Enterococcus sp.): 4 µg/mL (≈ 2.69 µM)
MIC Enterococcus faecalis (GC 6189) (Enterococcus sp.): 2 µg/mL (≈ 1.34 µM)
MIC Enterococcus faecium (GC 2243) (Enterococcus sp.): 4 µg/mL (≈ 2.69 µM)
MIC Enterococcus faecium (GC 4556) (Enterococcus sp.): 4 µg/mL (≈ 2.69 µM)
MIC Enterococcus faecium (GC 4557) (Enterococcus sp.): 2 µg/mL (≈ 1.34 µM)
MIC Enterococcus faecalis (ATCC 29212) (Enterococcus sp.; strain ATCC 29212): 4 µg/mL (≈ 2.69 µM)
MIC Enterococcus faecium (GC 2243) (Enterococcus sp.; strain GC 2243): 4 µg/mL (≈ 2.69 µM)
MIC Enterococcus faecalis (GC 4552) (Enterococcus sp.; strain GC 4552): 4 µg/mL (≈ 2.69 µM)
MIC Enterococcus faecalis (GC 4553) (Enterococcus sp.; strain GC 4553): 4 µg/mL (≈ 2.69 µM)
MIC Enterococcus faecalis (GC 4554) (Enterococcus sp.; strain GC 4554): 4 µg/mL (≈ 2.69 µM)
MIC Enterococcus faecium (GC 4556) (Enterococcus sp.; strain GC 4556): 4 µg/mL (≈ 2.69 µM)
MIC Enterococcus faecium (GC 4557) (Enterococcus sp.; strain GC 4557): 2 µg/mL (≈ 1.34 µM)
MIC Enterococcus avium (GC 4558) (Enterococcus sp.; strain GC 4558): 4 µg/mL (≈ 2.69 µM)
MIC Enterococcus faecalis (GC 6189) (Enterococcus sp.; strain GC 6189): 2 µg/mL (≈ 1.34 µM)
MIC Enterococcus faecalis (GC 2242) (Enterococcus sp.; inoculum 5×10^5 CFU/mL, strain GC 2242): 4 µg/mL (≈ 2.69 µM)
MIC Enterococcus faecalis (GC 2691) (Enterococcus sp.; inoculum 5×10^5 CFU/mL, strain GC 2691): 4 µg/mL (≈ 2.69 µM)
MIC Enterococcus faecalis (GC 3059) (Enterococcus sp.; inoculum 5×10^5 CFU/mL, strain GC 3059): 2 µg/mL (≈ 1.34 µM)
MIC Coagulase Negative Staphylococcus (GC 4547) (Staphylococcus sp.): 2 µg/mL (≈ 1.34 µM)
MIC Coagulase Negative Staphylococcus (GC 4548) (Staphylococcus sp.): 1 µg/mL (≈ 0.672 µM)
MIC Coagulase Negative Staphylococcus (GC 4549) (Staphylococcus sp.): 2 µg/mL (≈ 1.34 µM)
MIC Coagulase Negative Staphylococcus (GC 4551) (Staphylococcus sp.): 4 µg/mL (≈ 2.69 µM)
MIC Coagulase Negative Staphylococcus (GC 6257) (Staphylococcus sp.): 2 µg/mL (≈ 1.34 µM)
MIC Staphylococcus aureus (ATCC 29213) (Staphylococcus sp.): 2 µg/mL (≈ 1.34 µM)
MIC Staphylococcus aureus (GC 1131) (Staphylococcus sp.): 2 µg/mL (≈ 1.34 µM)
MIC Staphylococcus aureus (GC 3051) (Staphylococcus sp.): 2 µg/mL (≈ 1.34 µM)
MIC Staphylococcus aureus (GC 3053) (Staphylococcus sp.): 2 µg/mL (≈ 1.34 µM)
MIC Staphylococcus aureus (GC 4541) (Staphylococcus sp.): 2 µg/mL (≈ 1.34 µM)
MIC Staphylococcus aureus (GC 4542) (Staphylococcus sp.): 2 µg/mL (≈ 1.34 µM)
MIC Staphylococcus aureus (GC 4544) (Staphylococcus sp.): 2 µg/mL (≈ 1.34 µM)
MIC Staphylococcus aureus (GC 4545) (Staphylococcus sp.): 2 µg/mL (≈ 1.34 µM)
MIC Staphylococcus aureus-SMITH (GC 4543) (Staphylococcus sp.): 2 µg/mL (≈ 1.34 µM)
MIC Staphylococcus haemolyticus (GC 4546) (Staphylococcus sp.): 2 µg/mL (≈ 1.34 µM)
MIC Staphylococcus aureus (ATCC 29213) (Staphylococcus sp.; strain ATCC 29213): 2 µg/mL (≈ 1.34 µM)
MIC Staphylococcus aureus (GC 1131) (Staphylococcus sp.; strain GC 1131): 2 µg/mL (≈ 1.34 µM)
MIC Staphylococcus aureus (GC 3051) (Staphylococcus sp.; strain GC 3051): 2 µg/mL (≈ 1.34 µM)
MIC Staphylococcus aureus (GC 3053) (Staphylococcus sp.; strain GC 3053): 2 µg/mL (≈ 1.34 µM)
MIC Staphylococcus aureus (GC 4541) (Staphylococcus sp.; strain GC 4541): 2 µg/mL (≈ 1.34 µM)
MIC Staphylococcus aureus (GC 4542) (Staphylococcus sp.; strain GC 4542): 2 µg/mL (≈ 1.34 µM)
MIC Staphylococcus aureus-SMITH (GC 4543) (Staphylococcus sp.; strain GC 4543): 2 µg/mL (≈ 1.34 µM)
MIC Staphylococcus aureus (GC 4544) (Staphylococcus sp.; strain GC 4544): 2 µg/mL (≈ 1.34 µM)
MIC Staphylococcus aureus (GC 4545) (Staphylococcus sp.; strain GC 4545): 2 µg/mL (≈ 1.34 µM)
MIC Staphylococcus haemolyticus (GC 4546) (Staphylococcus sp.; strain GC 4546): 2 µg/mL (≈ 1.34 µM)
MIC Coagulase Negative Staphylococcus (GC 4547) (Staphylococcus sp.; strain GC 4547): 2 µg/mL (≈ 1.34 µM)
MIC Coagulase Negative Staphylococcus (GC 4548) (Staphylococcus sp.; strain GC 4548): 1 µg/mL (≈ 0.672 µM)
MIC Coagulase Negative Staphylococcus (GC 4549) (Staphylococcus sp.; strain GC 4549): 2 µg/mL (≈ 1.34 µM)
MIC Coagulase Negative Staphylococcus (GC 4551) (Staphylococcus sp.; strain GC 4551): 4 µg/mL (≈ 2.69 µM)
MIC Coagulase Negative Staphylococcus (GC 6257) (Staphylococcus sp.; strain GC 6257): 2 µg/mL (≈ 1.34 µM)
